The values below are quoted from earlier work in patent US7887848B2, “Nutraceutical treatments for diabetic and non-diabetic wound healing” (Interhealth Nutraceuticals, Inc., priority 2006, dated 2011).

Turning to `OO` [H2O2], the “beneficial effect on wounds” value (H2O2 at strength of 3%) is “no beneficial effect”. The dermal wound healing result (topical H2O2 (Roy et al. 2006)) is reported as “facilitates dermal wound healing”.
